Measured values from ChEMBL document CHEMBL1143045, “Tricyclic isoxazolines: identification of R226161 as a potential new antidepressant that combines potent serotonin reuptake inhibition and alpha2-adrenoceptor antagonism” (Bioorg Med Chem, 2007).

Key:
[1] = biological target: T1, Alpha-2A adrenergic receptor (Homo sapiens, UniProt P08913); experiment: Displacement of [3H]rawolscine from human cloned adrenergic alpha2A receptor transfected in CHO cells; format: cell-based
T1 sequence (P08913 whole entry): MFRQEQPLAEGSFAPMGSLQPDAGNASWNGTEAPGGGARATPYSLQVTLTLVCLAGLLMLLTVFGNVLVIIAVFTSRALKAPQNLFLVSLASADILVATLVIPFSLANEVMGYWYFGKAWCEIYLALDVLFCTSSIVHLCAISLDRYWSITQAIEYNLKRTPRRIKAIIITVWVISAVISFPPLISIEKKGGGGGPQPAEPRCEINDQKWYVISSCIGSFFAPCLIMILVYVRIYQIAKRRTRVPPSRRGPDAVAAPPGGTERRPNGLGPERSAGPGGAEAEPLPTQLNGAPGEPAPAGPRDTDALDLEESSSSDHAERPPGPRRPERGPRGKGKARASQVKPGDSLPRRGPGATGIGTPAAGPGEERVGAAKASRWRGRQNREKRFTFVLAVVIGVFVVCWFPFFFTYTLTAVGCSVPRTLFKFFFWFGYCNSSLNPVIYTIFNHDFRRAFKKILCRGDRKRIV

[2] = biological target: T2, Alpha-2B adrenergic receptor (Homo sapiens, UniProt P18089); experiment: Displacement of [3H]rawolscine from human cloned adrenergic alpha-2B receptor transfected in CHO cells; format: cell-based
T2 sequence (P18089 whole entry): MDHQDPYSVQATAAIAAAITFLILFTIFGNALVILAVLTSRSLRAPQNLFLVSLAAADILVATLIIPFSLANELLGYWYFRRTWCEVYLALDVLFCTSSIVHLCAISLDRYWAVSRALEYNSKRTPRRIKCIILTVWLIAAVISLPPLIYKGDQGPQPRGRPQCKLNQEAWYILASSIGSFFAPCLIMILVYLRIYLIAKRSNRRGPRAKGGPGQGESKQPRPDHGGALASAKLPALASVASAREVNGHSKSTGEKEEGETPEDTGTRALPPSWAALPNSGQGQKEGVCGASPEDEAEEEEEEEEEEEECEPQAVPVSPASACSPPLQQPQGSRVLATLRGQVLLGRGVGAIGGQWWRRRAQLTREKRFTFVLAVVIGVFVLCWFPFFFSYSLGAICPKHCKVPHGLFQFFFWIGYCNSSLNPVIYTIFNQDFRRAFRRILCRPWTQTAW

[3] = biological target: T3, Alpha-2C adrenergic receptor (Homo sapiens, UniProt P18825); experiment: Displacement of [3H]rawolscine from human cloned adrenergic Alpha-2C receptor transfected in CHO cells; format: cell-based
T3 sequence (P18825 whole entry): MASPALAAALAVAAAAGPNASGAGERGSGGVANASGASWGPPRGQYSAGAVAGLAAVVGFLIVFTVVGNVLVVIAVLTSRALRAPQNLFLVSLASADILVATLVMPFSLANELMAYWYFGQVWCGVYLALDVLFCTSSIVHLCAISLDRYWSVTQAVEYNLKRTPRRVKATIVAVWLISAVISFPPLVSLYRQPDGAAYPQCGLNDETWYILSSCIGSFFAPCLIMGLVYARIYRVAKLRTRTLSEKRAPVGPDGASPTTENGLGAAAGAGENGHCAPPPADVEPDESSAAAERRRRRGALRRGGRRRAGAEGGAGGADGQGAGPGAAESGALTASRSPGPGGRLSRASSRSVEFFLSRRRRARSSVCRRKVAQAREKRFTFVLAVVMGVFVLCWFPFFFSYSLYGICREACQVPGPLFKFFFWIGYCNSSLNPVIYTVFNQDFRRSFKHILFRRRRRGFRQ

[4] = biological target: Sodium-dependent serotonin transporter (Homo sapiens, UniProt P31645); experiment: Displacement of [3H]paroxetine from human cloned 5HTT receptor transfected in CHO cells; format: cell-based
[5] = biological target: Adrenergic receptor alpha-2 (Rattus norvegicus) (UniProt P22086+P19328+P22909); experiment: Reversal of medetomidine-induced loss of righting reflex in sc dosed Wistar rat after 1hr; format: functional, organism-based
[6] = biological target: Sodium-dependent serotonin transporter (Rattus norvegicus) (UniProt P31652); experiment: Antagonism of p-chloroamphetamine-induced excitation in sc dosed Wistar rat after 1 hr; format: functional, organism-based
Sodium-dependent serotonin transporter (Rattus norvegicus), sequence (P31652 whole entry): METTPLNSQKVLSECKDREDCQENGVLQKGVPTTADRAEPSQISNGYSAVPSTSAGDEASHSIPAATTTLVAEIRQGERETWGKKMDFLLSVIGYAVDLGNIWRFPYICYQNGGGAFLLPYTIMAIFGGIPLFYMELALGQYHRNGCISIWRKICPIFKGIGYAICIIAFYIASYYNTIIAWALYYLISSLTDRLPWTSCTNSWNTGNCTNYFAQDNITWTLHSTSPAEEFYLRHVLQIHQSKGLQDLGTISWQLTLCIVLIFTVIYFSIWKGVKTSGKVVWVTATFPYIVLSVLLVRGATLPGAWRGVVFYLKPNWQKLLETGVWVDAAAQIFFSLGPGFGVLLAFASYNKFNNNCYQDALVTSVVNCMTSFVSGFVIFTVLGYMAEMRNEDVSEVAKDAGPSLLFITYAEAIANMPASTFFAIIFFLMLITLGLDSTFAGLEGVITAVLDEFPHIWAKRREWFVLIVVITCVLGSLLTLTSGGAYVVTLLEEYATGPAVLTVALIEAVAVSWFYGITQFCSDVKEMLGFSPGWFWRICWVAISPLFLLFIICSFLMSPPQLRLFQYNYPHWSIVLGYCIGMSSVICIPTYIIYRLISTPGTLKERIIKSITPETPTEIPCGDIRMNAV

Sodium-dependent serotonin transporter, sequence (P31645 whole entry): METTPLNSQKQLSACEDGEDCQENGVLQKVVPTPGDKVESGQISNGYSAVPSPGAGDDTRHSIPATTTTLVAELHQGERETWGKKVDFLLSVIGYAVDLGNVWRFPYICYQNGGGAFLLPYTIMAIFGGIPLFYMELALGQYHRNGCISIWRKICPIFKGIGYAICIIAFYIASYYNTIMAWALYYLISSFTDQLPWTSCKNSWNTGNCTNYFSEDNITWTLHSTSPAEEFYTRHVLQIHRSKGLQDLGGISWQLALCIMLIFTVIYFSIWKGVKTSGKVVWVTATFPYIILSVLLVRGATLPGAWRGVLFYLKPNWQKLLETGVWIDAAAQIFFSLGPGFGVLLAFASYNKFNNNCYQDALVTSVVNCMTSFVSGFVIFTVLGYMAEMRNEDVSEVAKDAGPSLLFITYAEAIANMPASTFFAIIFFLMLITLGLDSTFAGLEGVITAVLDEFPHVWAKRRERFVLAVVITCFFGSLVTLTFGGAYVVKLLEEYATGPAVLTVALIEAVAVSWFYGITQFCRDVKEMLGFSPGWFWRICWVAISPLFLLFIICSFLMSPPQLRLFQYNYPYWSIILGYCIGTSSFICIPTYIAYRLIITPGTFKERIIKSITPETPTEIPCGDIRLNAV

Ki [1] [nM] | Ki [2] [nM] | Ki [3] [nM] | Ki [4] [nM] | ED50 [5] [mg/kg] | ED50 [6] [mg/kg] | Compound
117 | 162 | 72 | 14 |  |  | COc1cc2c(cc1OC)C1=NOC(CN3CCN(C/C=C/c4ccc(F)cc4)CC3)C1CO2 (cis isomer)
9 | 25 | 23 | 5.6 |  |  | COc1cc2c(cc1OC)C1=NOC(CN3CCN(C/C=C/c4ccc(F)cc4)CC3)C1CO2 (racemic) [listing 1 of 2 here]
 | 8.4 |  |  |  |  | COc1cc2c(cc1OC)C1=NO[C@@H](CN3CCN(C/C(C)=C/c4ccc(F)cc4)CC3)[C@@H]1CO2 (racemic) [listing 1 of 2 here]
 | 12 | 0.1 | 8.9 |  |  | COc1cc2c(cc1OC)C1=NOC(CN3CCN(C/C(C)=C/c4ccccc4)CC3)C1CN2 (racemic) [listing 1 of 2 here]
 |  |  |  | 0.2 | 2.2 | COc1cc2c(cc1OC)C1=NOC(CN3CCN(C/C(C)=C/c4ccccc4)CC3)C1CN2 (racemic) [listing 2 of 2 here]
 |  |  |  | 0.1 | 4.7 | COc1cc2c(cc1OC)C1=NOC(CN3CCN(C/C=C/c4ccc(F)cc4)CC3)C1CO2 (racemic) [listing 2 of 2 here]
 |  |  |  | 0.1 |  | COc1cc2c(cc1OC)C1=NO[C@@H](CN3CCN(C/C(C)=C/c4ccc(F)cc4)CC3)[C@@H]1CO2 (racemic) [listing 2 of 2 here]
54 | 14 | 4.5 | 2.1 |  |  | COc1cc2c(cc1OC)C1=NOC(CN3CCN(C/C=C/c4ccc(F)cc4)CC3)C1CO2 (single isomer, unassigned; (+))
